What all share (type): cell-based, human
The test system of one assay is fibrocytes. Briefly: fibrocyte migration in response to recombinant chemokine (CXCL12, CCL11), modified Boyden chamber assay. Here is the method:
(§1) Purification of nonadherent non-T (NANT) cells was performed. Briefly, peripheral blood mononuclear cells (PBMC) were separated from whole blood by Ficoll-Hypaque density gradient centrifugation. After the first centrifugation at 150 g for 15 min, the top plasma layer was harvested and kept at −80° C. for further analysis. Mononuclear cells at the interface were harvested, washed once with 1×PBS. Erythrocyte lysis was performed by adding 20 ml of hypotonic 0.2% NaCl solution during 30s, followed by adding 20 ml of 1.6% NaCl to end with an isotonic solution. Mononuclear cells were again washed with 1×PBS, resuspended in Dulbecco's modified Eagle medium (DMEM), 4.5 g/l glucose, L-glutamine, supplemented with 20% fetal bovine serum (FBS), penicillin/streptomycin and MEM non essential amino acid and incubated 1 h at 37° C. The non-adherent mononuclear cell fraction was taken and washed in cold 1×PBS 0.5% BSA, 2 mM EDTA. T-cells were further depleted with anti-CD3 monoclonal antibody (Miltenyi Biotech). At least 0.2×10^6 nonadherent non-T (NANT) cells were distributed in each FACS tube and fixed overnight with Cytofix/Cytoperm (eBioscience).
Fibrocyte migration was assessed using a modified Boyden chamber assay. The transwell inserts (pore size 8 μm) and the wells were coated for 1 h at room temperature with poly-lysine-ethylene glycol (PEG-PLL, Susos) to prevent cell adhesion. The inserts and the wells were rinsed with PBS. 0,3.10^6 nonadherent non-T (NANT) cells resuspended in 0.2 ml […] DMEM, 4.5 g/l glucose, L-glutamine, supplemented with ITS, penicillin/streptomycin and MEM non essential amino acid were added to the upper compartment of each well. […] The fraction of migratory fibrocytes was defined by the ratio between the number CD45+coll I+ cells counted in the bottom chamber divided by the number of CD45+coll I+ cells added in the upper compartment. […]

The subject of assay [1] is fibrocytes obtained from exacerbating COPD patients. Briefly: plasma-induced fibrocyte migration, modified Boyden chamber assay. Here is the method: as §1
(§2) Fibrocyte migration was assessed using a modified Boyden chamber assay. The transwell inserts (pore size 8 μm) and the wells were coated for 1 h at room temperature with poly-lysine-ethylene glycol (PEG-PLL, Susos) to prevent cell adhesion. The inserts and the wells were rinsed with PBS. 0,3.10^6 nonadherent non-T (NANT) cells resuspended in 0.2 ml […] DMEM, 4.5 g/l glucose, L-glutamine, supplemented with ITS, penicillin/streptomycin and MEM non essential amino acid were added to the upper compartment of each well. When indicated, NANT cells were pretreated for 1 h at 37° by 25 μg/ml plerixafor (Sigma-Aldrich) or 10 μM SB 328437 (R&D Systems) before being added to the upper compartment. Recombinant human CXCL12 (25 ng/ml to 200 ng/ml; R&D Systems), recombinant human CCL11 (25 ng/ml to 200 ng/ml; R&D Systems) or plasma (50% dilution) extracted from blood coming from COPD V1 patient or control subject was added to the bottom compartment of each well. After about 12 h, the content of bottom compartment was removed to assess fibrocyte migration by flow cytometry using double labeling CD45-collagen I. To obtain absolute values of migratory cells, flow cytometric counts for each condition were obtained during a constant predetermined time period (1 min). The fraction of migratory fibrocytes was defined by the ratio between the number CD45+coll I+ cells counted in the bottom chamber divided by the number of CD45+coll I+ cells added in the upper compartment. These values were normalized to the fraction of migratory fibrocytes obtained in the basal condition (medium only).

For assay [2], the system named is fibrocytes obtained from normal subjects. The assay is described as above. Here is the method:
as §1, §2

For the molecule “CXCL12 alpha: recombinant human CXCL12 (R&D Systems), chemokine ligand of CXCR4”, the “migration of fibrocytes from exacerbating COPD patient compared to fibrocytes from control subjects” value in the assay on fibrocytes (100 ng/ml chemokine, FIG. 5C) is on record as “significantly higher migration”. In the assay on fibrocytes (recombinant human chemokine 25 ng/ml to 200 ng/ml in bottom compartment, about 12 h, FIG. 5C, Figure E3C), the “migratory response of fibrocytes to increasing concentrations of chemokine” value is given as “induced a significant fibrocytes migration in a dose-dependent manner”.

Take `c1cc(CN2CCCNCCNCCCNCC2)ccc1CN1CCCNCCNCCCNCC1` [Plerixafor]: the “plasma-induced recruitment of fibrocytes” value in assay [1] (plasma of exacerbating COPD patients (50% dilution), cells pretreated 1 h with 25 μg/ml plerixafor, about 12 h, FIG. 5A) is recorded as “significant reduction”. Also, the “plasma-induced migration of fibrocytes” value in assay [2] (fibrocytes from normal (control) subjects, plasma of exacerbating COPD patients (50% dilution), cells pretreated 1 h with 25 μg/ml plerixafor, about 12 h, FIG. 5A) was “no significant reduction”. In addition, in the assay on fibrocytes (CXCL12 alpha-induced migration, cells pretreated 1 h with 25 μg/ml plerixafor, FIG. 5D), the “fibrocyte migration in response to CXCL12 in presence of antagonist” value is given as “completely abolished”.

In the case of `COC(=O)[C@H](Cc1ccc([N+](=O)[O-])cc1)NC(=O)c1ccc2ccccc2c1` [SB 328437, (S)-methyl-2-naphthoylamino-3-(4-nitrophenyl) propionate], the “plasma-induced migration of fibrocytes” value in assay [1] (plasma of exacerbating COPD patients, cells pretreated 1 h with 10 μM SB 328437, Figure E3A (FIG. 8A)) is “not affected”; in assay [2] (fibrocytes from control subjects, plasma of exacerbating COPD patients, cells pretreated 1 h with 10 μM SB 328437, Figure E3A (FIG. 8A)), “not affected”.

Source of the values: patent US10813911B2, “Methods of treating and/or preventing chronic obstructive pulmonary disease” (UNIVERSITE DE BORDEAUX, priority 2015, dated 2020).
